Laboratory results from ChEMBL document CHEMBL1821652, “QSAR models for predicting enzymatic hydrolysis of new chemical entities in 'soft-drug' design” (Bioorg Med Chem, 2009).
Residues, ends and D or L forms follow the SMILES beside them.

Assays:
[1] = system: Plasma; experiment: (§1) Half life in human plasma; format: ADME, cell-free
[2] = as §1; format: ADME, cell-free

Row | Structure (SMILES) | t1/2 [1] [h] | half-life [2] [h]
1 | COC(=O)[C@H](Cc1ccc(OC(C)=O)c(OC(C)=O)c1)NC(=O)N[C@@H](Cc1ccc(OC(C)=O)c(OC(C)=O)c1)C(=O)OC | 1.698 | 
2 | COC(=O)[C@H](Cc1ccc(OC(C)=O)c(OC(C)=O)c1)NC(=O)CCCC(=O)N[C@@H](Cc1ccc(OC(C)=O)c(OC(C)=O)c1)C(=O)OC | 1.05 | 
3 | CCC[C@@H]1O[C@@H]2C[C@H]3[C@@H]4C[C@H](F)C5=CC(=O)CC[C@]5(C)[C@@]4(F)[C@@H](O)C[C@]3(C)[C@]2(S[C@@H]2CCOC2=O)O1 |  | 0.0833
4 | Cc1nccn1CCOC(=O)[C@H](C)c1ccc(CC(C)C)cc1 |  | 0.0867
5 | CC(C)Cc1ccc([C@H](C)C(=O)OCC(=O)N(C)C)cc1 |  | 0.117
6 | C[C@H](C(=O)OCC(=O)N(C)C)c1ccc(-c2ccccc2)c(F)c1 |  | 0.183
7 | C[C@@H](C(=O)OCCn1ccnc1)c1ccc(-c2ccccc2)c(F)c1 |  | 0.3
8 | CC(C)Cc1ccc([C@@H](C)C(=O)OCCn2ccnc2)cc1 |  | 0.317
9 | Cc1nccn1CCOC(=O)[C@H](C)c1ccc(-c2ccccc2)c(F)c1 |  | 0.633
10 | Cc1nccn1CCOC(=O)[C@@H](C)c1ccc(CC(C)C)cc1 |  | 2.25
11 | Cc1nccn1CCOC(=O)[C@@H](C)c1ccc(-c2ccccc2)c(F)c1 |  | 5.92
12 | C[C@H](C(=O)OCCn1ccnc1)c1ccc(-c2ccccc2)c(F)c1 |  | 7.42
13 | CC(C)Cc1ccc([C@H](C)C(=O)OCCn2ccnc2)cc1 |  | 16
14 | CCOC(=O)[C@H](C)c1ccc(CC(C)C)cc1 |  | 93
15 | CCOC(=O)[C@@H](C)c1ccc(CC(C)C)cc1 |  | 265
16 | Cc1ncc([N+](=O)[O-])n1CCOC(=O)CN1CCC(c2ccccc2)CC1 |  | 2.3
17 | COC(=O)[C@H](Cc1ccc(OC(C)=O)c(OC(C)=O)c1)NC(=O)CCCC[C@@H]1CCSS1 |  | 0.88

Row | Structure (SMILES) | t1/2 [1] [h] | half-life [2] [h]
18 | CC(=O)Oc1ccc(CCNC(=O)CCCC[C@@H]2CCSS2)cc1OC(C)=O |  | 0.172
19 | COC(=O)[C@H](Cc1ccc(OC(C)=O)c(OC(C)=O)c1)NC(=O)CCC(=O)N[C@@H](Cc1ccc(OC(C)=O)c(OC(C)=O)c1)C(=O)OC | 0.232 | 
20 | COC(=O)[C@H](Cc1ccc(OC(C)=O)c(OC(C)=O)c1)NC(=O)CCCCC(=O)N[C@@H](Cc1ccc(OC(C)=O)c(OC(C)=O)c1)C(=O)OC | 0.13 | 
21 | O=C(CCCC[C@@H]1CCSS1)NCCc1ccc(O)c(O)c1 |  | 1.35
22 | COC(=O)[C@H](Cc1ccc(O)c(O)c1)NC(=O)CCCC[C@@H]1CCSS1 |  | 1.63
23 | NCC(=O)N[C@@H](Cc1ccccc1)C(=O)O (H-Gly-Phe-OH) |  | 1.19
24 | COC(=O)[C@H](Cc1ccccc1)NC(=O)CN.Cl (H-Gly-Phe-OMe) |  | 0.167
25 | CC(C)[C@H](N)C(=O)OCCOCn1cnc2c(=O)[nH]c(N)nc21 (stereo in doubt; 160) [VALACYCLOVIR] |  | 5.2
26 | CC(C)[C@H](N)C(=O)OCCOCn1cnc2c(=O)[nH]c(N)nc21 (stereo in doubt; 167) [VALACYCLOVIR] | 7.13 | 
27 | CC(C)C[C@@H](NC(=O)[C@H](Cc1ccccc1)NC(=O)CNC(=O)[C@@H](C)NC(=O)[C@@H](N)Cc1ccc(O)cc1)C(=O)O [DADLE] |  | > 24
28 | O=C(CCCCCCCCC(=O)Oc1ccc2c3c1O[C@H]1[C@@H](O)CC[C@@]4(O)[C@@H](C2)N(CC2CCC2)CC[C@]314)Oc1ccc2c3c1O[C@H]1[C@@H](O)CC[C@@]4(O)[C@@H](C2)N(CC2CCC2)CC[C@]314 [DINALBUPHINE SEBACATE] |  | 0.09
29 | CC(C)C[C@H](NC(=O)[C@H](Cc1ccccc1)NC(=O)CNC(=O)CNC(=O)[C@@H](N)Cc1ccc(O)cc1)C(=O)O [ENKEPHALIN] | 13.5 | 
30 | CCOC(=O)[C@@H](N)Cc1ccc(O)c(O)c1 [ETILEVODOPA] |  | 1.67
31 | COc1ccccc1OC(=O)c1ccccc1Nc1cccc(C)c1C [MEFENAMIC ACID GUAIACOL ESTER] |  | 15.2
32 | CC(C)[N+](C)(CCOC(=O)C1c2ccccc2Oc2ccccc21)C(C)C [PROPANTHELINE] | 6.17 | 
33 | CC(=O)N(c1onc(C)c1C)S(=O)(=O)c1ccc(N)cc1 [SULFISOXAZOLE ACETYL] |  | 0.005
